Patent publication US11311523B2, “Pyridinone compound and use thereof” (KYUSHU UNIVERSITY, NATIONAL UNIVERSITY CORPORATION, priority 2015, dated 2022)
pIC50: −log10 of the molar value. “Also recorded” adds a separate entry of the source.

What was measured:
[1] = system: human fibrosarcoma cell line (HT-1080); test: cellular invasion inhibition assay (Matrigel chamber); format: cell-based; details: FIG. 12(C)
Procedure: (§1) Pharmacological Test 2 (Cellular Invasion Inhibition Assay)
(§2) Three hundred microliters of a suspension of a mouse lung carcinoma cell line (3LL), a human fibrosarcoma cell line (HT-1080), or a human colon cancer cell line (DLD-1) in DMEM (serum free) was placed in the upper chamber with Matrigel (BD Biosciences) equilibrated with DMEM (serum free) for 120 minutes, while 500 μL of DMEM (with 10% FCS) was placed in the lower chamber. Each pyridinone compound or CPYPP dissolved at a predetermined concentration in DMSO was added to the culture media in both the upper and lower chambers. As a control, DMSO alone was added to the media. In all of the experiments, the final DMSO concentration was adjusted to 0.2%.
(§3) After the resulting products were cultured at 37° C. under 5% CO2 for 22 hours, the chambers were removed, and the culture media were removed. […] After staining, the inserts were cut out with a blade to prepare slides, and the cells were counted under an optical microscope.
(§4) The results were evaluated based on percent cell invasion (%: Invasion) and percent inhibition (%: inhibition). The percent cell invasion was obtained by converting the number of invading cells under each condition to percentage, taking the number of invading cells in the control, to which DMSO was added alone, as 100%; and the percent inhibition was obtained by deducting the percent cell invasion from 100.

[2] = system: mouse lung carcinoma cell line (3LL); test: as above; format: cell-based; details: 3LL cells; for inhibition of cancer cell (3LL) invasion: 22 hours, compared to DMSO; for pIC50: Mus musculus, FIG. 12(B), read-out: IC50 value calculated from cancer cell invasion inhibition
Procedure: as §1, §2, §3, §4

DHR-2 domain of DOCK1 = target: T1, DHR-2 domain of DOCK1 (Homo sapiens, UniProt Q14185); test: in vitro GEF assay (Bodipy-FL-GTP loading of Rac); format: biochemical; details: from IC50 values for DOCK1, DOCK2, DOCK5
T1 construct: Polypeptide fragments that correspond to the DHR-2 domain of DOCK1, DOCK2, or DOCK5; Histidine-SUMO (N); made in house; host or cells: E. coli Arctic express (DE3)
T1 sequence (Q14185 1207-1617 limits assumed): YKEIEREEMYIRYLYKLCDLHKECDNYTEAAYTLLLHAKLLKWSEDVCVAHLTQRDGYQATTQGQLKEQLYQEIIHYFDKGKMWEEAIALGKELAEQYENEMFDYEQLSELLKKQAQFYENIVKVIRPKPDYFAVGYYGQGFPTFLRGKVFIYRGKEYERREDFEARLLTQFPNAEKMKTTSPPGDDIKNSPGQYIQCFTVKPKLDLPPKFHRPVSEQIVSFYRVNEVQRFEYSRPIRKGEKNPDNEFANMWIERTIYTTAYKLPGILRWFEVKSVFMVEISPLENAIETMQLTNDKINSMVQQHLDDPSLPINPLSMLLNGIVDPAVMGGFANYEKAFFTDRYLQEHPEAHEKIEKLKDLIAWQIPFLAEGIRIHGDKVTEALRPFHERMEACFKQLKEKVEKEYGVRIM
Excerpt: Pharmacological Test 1 (In Vitro GEF Assay)
DOCK1, DOCK2, and DOCK5, which are DOCK-A subfamily members, catalyze the GTP-GDP exchange reaction for Rac via the DHR-2 domain to activate Rac.
The in vitro GEF assay referred to in this specification used a labeled GTP (Bodipy-FL-GTP, Invitrogen), whose fluorescence intensity increases when bound to Rac.
Polypeptide fragments that correspond to the DHR-2 domain of DOCK1, DOCK2, or DOCK5 were expressed in E. coli Arctic express (DE3) cells as N-terminal Histidine-SUMO tag-fused recombinant proteins and purified by affinity column chromatography on nickel-NTA columns.
Rac was expressed in E. coli BL21 (DE3) cells as an N-terminal GST tag-fused recombinant protein and purified by affinity column chromatography on glutathione-Sepharose columns.
Subsequently, a reaction solution A containing 20 mM of MES-NaOH, 150 mM of NaCl, 10 mM of MgCl2, and 20 μM of GDP, and having an adjusted pH of 7.0 was incubated at room temperature for 30 minutes while being protected from light in the presence of each of the polypeptide fragments (DHR-2 domains) prepared above and each pyridinone compound or CPYPP dissolved at a predetermined concentration in DMSO or DMSO alone (control) to thus prepare GEF pretreated products. In all of the samples, the final DMSO concentration was adjusted to 3%.
Thereafter, 15 μM of Rac prepared above was added to the reaction solution A and directly allowed to stand on ice for 30 minutes to form a GDP-Rac complex.
Bodipy-FL-GTP was added to 100 μL of the reaction solution A containing the thus prepared GDP-Rac complex to a concentration of 3.6 μM, followed by equilibration at 30° C. for 2 minutes. After equilibration, 50 μL of the pretreated GEF was added for reaction at 30° C.
Changes in fluorescence intensity of Bodipy-FL-GTP were monitored during the reaction using an XS-N (Molecular Devices) or an Enspire spectrofluorometer (Perkin Elmer) (excitation wavelength: 488 nm, emission wavelength: 514 nm). The measured values were corrected so that the fluorescence intensity at the time that the reaction was initiated (0 seconds) was 0.
Then, an approximate curve (hyperbola) was obtained by plotting the calculated correction values on the y axis and the time (t) on the x axis using GraphPad Prism5 (GraphPad software), and the slope at t=0 to 10 seconds was considered to be an initial velocity of guanine nucleotide exchange reaction. The IC50 value was calculated taking the initial reaction velocity of the control, to which only a solvent (DMSO) was added, as 100%.

mouse spleen T cells = test: T lymphocyte migration towards CCL21 (Transwell); format: cell-based; details: FIG. 16(A)
Excerpt: Pharmacological Test. 6 (Evaluation on T Lymphocyte Migration)
Lymphocyte migration plays key roles in immune responses. T cell stimulation by chemokines, such as CCL21, induces actin cytoskeletal remodeling through Rac activation. This drives the cells to migrate towards the source of chemokines.
Therefore, the use of various pyridinone compounds in this assay system enables cell-level verification of DOCK1 selectivity.
Mouse spleen cells at a cell concentration of 1×10^7 cells/mL were precultured at 37° C. for 1 hour in 0.5% BSA-containing RPMI-1640 (Transwell medium) containing DMSO alone or DMSO in which each pyridinone compound was dissolved at a predetermined concentration.
Subsequently, 500 μL of Transwell medium containing 300 ng/mL of CCL21 and DMSO in which each pyridinone compound was dissolved at a predetermined concentration was added to a 24-well plate. […]
After 2-hour incubation at 37° C., the cells that migrated to the lower chamber were collected and stained with PE-labeled anti-Thy1.2 antibody (53-2-1, BD Pharmingen) and APC-labeled anti-B220 antibody (RA-6B-2, eBioscience). The percentage (%) of the migrated cells was calculated by dividing the number of Thy1.2^+ cells (T cells) in the lower chamber by the number of Thy1.2^+ cells (T cells) placed into the Transwell inserts. […]

pIC50 [2]	selectivity of GEF inhibition to DOCK1 versus DOCK2 and DOCK5 (DHR-2 domain of DOCK1)	SMILES	inhibition of HT-1080 cell invasion [1]	inhibition of cancer cell (3LL) invasion [2]	CCL21-stimulated T cell migration (mouse spleen T cells)
5.25	high selectivity to DOCK1	O=C(Cn1cc(S(=O)(=O)N2CCCC2)ccc1=O)c1ccc(-c2ccc3ccccc3c2)cc1 [TS-28, 1-(2-(4-(naphthalen-2-yl)phenyl)-2-oxoethyl)-5-(pyrrolidin-1-ylsulfonyl)pyridin-2(1H)-one]	inhibit HT-1080 cell invasion	significantly excellent inhibitory effect; also recorded: inhibit cancer cell invasion in a concentration-dependent manner	did not affect
5.52	high selectivity to DOCK1	O=C(Cn1cc(S(=O)(=O)N2CCCC2)ccc1=O)c1ccc(-c2cccc(C(F)(F)F)c2)cc1 [TS-45, 1-(2-oxo-2-(3′-(trifluoromethyl)-[1,1′-biphenyl]-4-yl)ethyl)-5-(pyrrolidin-1-ylsulfonyl)pyridin-2(1H)-one]	inhibit HT-1080 cell invasion	significantly excellent inhibitory effect; also recorded: inhibit cancer cell invasion in a concentration-dependent manner	did not affect
